Where two headings read alike, the source gives them in different places.
What was measured:
[1] = target: T1, PARP-1 (Homo sapiens, UniProt P09874); experiment: PARP enzymatic assay (HT Universal Colorimetric PARP1 Assay Kit); type: biochemical; conditions: read-out: PARP-1 enzymatic inhibition IC50
T1 construct: purchased
Experimental: PARP Enzymatic Assay (Following the Manual of HT Universal Colorimetric PARP1 Assay Kit).
Histone proteins were coated on a 96-well plate and incubated overnight at 4° C. After be washed 3 times with 200 ul PBST solution, the plate was blocked with a blocking solution and incubated for 30 min at room temperature, and then washed with PBST solution 3 times. A compound to be tested was treated and added to the plate. Thereafter, 20 μl of diluted PARP1 (1 nM) or 20 μl of PARP2 (3 nM) solution was added into the reaction system and incubated for 1 or 2 hours. 50 ul of streptavidin-HRP mixture (1:50) was added into the plate and incubated for 30 min at room temperature. The plate was then washed with three times with PBST buffer. 100 μl of (HRP) (Chemiluminescent substrate A and substrate B (1:1)) was added into the plate, and the plate was immediately read on a microplate reader (Envision, PerkinElmer).

[2] = system: HCC1937 cells; experiment: Cellular PARylation assay; type: cell-based
Experimental: Cellular PARylation Assay
HCC1937 cells were planted into 96 well plates at 4×10^4 cells/well and incubated at 37° C. in an incubator overnight. After being treated with a test compound for 30 min, cells were then treated with 1 mM H2O2 for 10 min. The cells were washed with 200 ul pre-chilled PBS twice and fixed with 100 ul pre-chilled methanol/acetone (7:3) on ice for 30 min. After being air-dried, the plates were blocked using PBS-Tween blocking solution (0.05%) with dissolved 5% nonfat dry milk for 30 min at room temperature. The cells were incubated with anti-PAR antibody 10H (1:100) at room temperature for 1 hour followed by washing with PBS-Tween20 for 3 times; and then added into a blocking solution including goat anti-mouse fluorescein isothiocyanate (FITC)-coupled secondary antibody and 1 μg/mL DAPI to incubate away from light at room temperature for 1 hour. After being washed with PBS-Tween20 for 3 times, the plate was analyzed with a fluorescence microplate counter (Flexstation III, Molecular Device).

[3] = Homo sapiens, HCC1937 cells, compound 30 min then 1 mM H2O2 10 min, read-out: cellular PARylation EC50

T1 sequence (P09874 whole entry): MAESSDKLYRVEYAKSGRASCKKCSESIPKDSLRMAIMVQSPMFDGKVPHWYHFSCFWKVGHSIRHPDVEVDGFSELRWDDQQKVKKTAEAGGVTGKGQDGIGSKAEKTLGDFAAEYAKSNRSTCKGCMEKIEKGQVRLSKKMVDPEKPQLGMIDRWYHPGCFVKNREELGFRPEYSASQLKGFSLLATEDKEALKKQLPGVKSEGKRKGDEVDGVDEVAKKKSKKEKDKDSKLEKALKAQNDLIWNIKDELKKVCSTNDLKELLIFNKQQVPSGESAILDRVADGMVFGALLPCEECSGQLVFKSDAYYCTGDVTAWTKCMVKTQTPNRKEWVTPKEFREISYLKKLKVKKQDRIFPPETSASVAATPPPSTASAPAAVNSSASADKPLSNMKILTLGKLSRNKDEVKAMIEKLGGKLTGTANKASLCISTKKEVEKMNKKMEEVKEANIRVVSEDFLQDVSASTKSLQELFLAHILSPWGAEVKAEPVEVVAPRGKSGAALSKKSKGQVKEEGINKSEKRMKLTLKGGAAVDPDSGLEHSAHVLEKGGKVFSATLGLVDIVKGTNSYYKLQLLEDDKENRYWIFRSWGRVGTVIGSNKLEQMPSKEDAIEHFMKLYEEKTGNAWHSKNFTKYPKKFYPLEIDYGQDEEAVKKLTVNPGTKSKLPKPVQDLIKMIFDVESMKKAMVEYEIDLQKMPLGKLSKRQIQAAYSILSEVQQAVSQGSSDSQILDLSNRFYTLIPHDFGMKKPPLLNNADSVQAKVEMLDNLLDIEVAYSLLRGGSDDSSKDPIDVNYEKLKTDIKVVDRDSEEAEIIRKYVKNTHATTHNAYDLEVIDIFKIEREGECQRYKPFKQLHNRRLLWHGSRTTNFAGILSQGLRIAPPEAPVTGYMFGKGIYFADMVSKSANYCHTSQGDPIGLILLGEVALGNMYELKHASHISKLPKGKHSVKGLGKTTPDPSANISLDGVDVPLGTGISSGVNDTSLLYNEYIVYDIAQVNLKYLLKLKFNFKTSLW

Row | Compound | IC50 [1] [nM] | EC50 [2, 3] [nM] | EC50 ([2]; HCC1937 cells, compound 30 min then 1 mM H2O2 10 min, read-out: cellular PARylation EC50) [nM] | EC50 ([2]; Homo sapiens, HCC1937, read-out: cellular PARylation EC50) [nM]
1 | CCCN1CCC(c2cnn3c2[nH]c2cc(F)cc(C(N)=O)c23)CC1 [Example 12, 6-fluoro-3-(1-propylpiperidin-4-yl)-4H-benzo[4,5]imidazo[1,2-b]pyrazole-8-carboxamide] | 1 to 100 | 1 to 100 | – | –
2 | Cn1ncnc1[C@H]1c2n[nH]c(=O)c3cc(F)cc(c23)N[C@@H]1c1ccc(F)cc1 [BMN-673, reference compound] | – | – | – | 1 to 100
3 | CC(C)(F)CN1CCC(c2cnn3c2[nH]c2cc(F)cc(C(N)=O)c23)CC1 [Example 7, 6-fluoro-3-(1-(2-fluoro-2-methylpropyl)piperidin-4-yl)-4H-benzo[4,5]imidazo[1,2-b]pyrazole-8-carboxamide] | 1 to 100 | 1 to 100 | – | –
4 | NC(=O)c1cc(F)cc2[nH]c3c(C4CCN(C5CC5)CC4)cnn3c12 [Example 4, 3-(1-cyclopropylpiperidin-4-yl)-6-fluoro-4H-benzo[4,5]imidazo[1,2-b]pyrazole-8-carboxamide] | 1 to 100 | 1 to 100 | – | –
5 | CC(C)N1CCC(C)(c2cnn3c2[nH]c2cc(F)cc(C(N)=O)c23)CC1 [Example 105, 6-fluoro-3-(1-isopropyl-4-methylpiperidin-4-yl)-4H-benzo[4,5]imidazo[1,2-b]pyrazole-8-carboxamide] | 1 to 100 | 1 to 100 | – | –
6 | COCCCN1CCC(C)(c2cnn3c2[nH]c2cc(F)cc(C(N)=O)c23)CC1 [Example 72, 6-fluoro-3-(1-(3-methoxypropyl)-4-methylpiperidin-4-yl)-4H-benzo[4,5]imidazo[1,2-b]pyrazole-8-carboxamide] | 1 to 100 | 1 to 100 | – | –
7 | C[C@]1(c2nc3c(C(N)=O)cccc3[nH]2)CCCN1 [ABT-888, veliparib, reference compound] | – | – | 1 to 100 | –

Now from value to compound, other results behind:

Row | IC50 [1] [nM] | EC50 [2, 3] [nM] | EC50 ([2]; HCC1937 cells, compound 30 min then 1 mM H2O2 10 min, read-out: cellular PARylation EC50) [nM] | Compound | EC50 ([2]; Homo sapiens, HCC1937, read-out: cellular PARylation EC50) [nM]
8 | 1 to 100 | 1 to 100 | – | CC1(c2cnn3c2[nH]c2cc(F)cc(C(N)=O)c23)CCN(CC2CC2)C1 (stereo not drawn) [Example 93, 3-(1-(cyclopropylmethyl)-3-methylpyrrolidin-3-yl)-6-fluoro-4H-benzo[4,5]imidazo[1,2-b]pyrazole-8-carboxamide] | –
9 | 1 to 100 | 101 to 1000 | – | NC(=O)c1cc(F)cc2[nH]c3c(C4C5CNCC54)cnn3c12 (stereo not drawn) [Example 33, 3-(3-azabicyclo[3.1.0]hexan-6-yl)-6-fluoro-4H-benzo[4,5]imidazo[1,2-b]pyrazole-8-carboxamide] | –
10 | 1 to 100 | 1 to 100 | – | CC(C)N1CCC(C)(c2cnn3c2[nH]c2cc(F)cc(C(N)=O)c23)C1 (stereo not drawn) [Example 92, 6-fluoro-3-(1-isopropyl-3-methylpyrrolidin-3-yl)-4H-benzo[4,5]imidazo[1,2-b]pyrazole-8-carboxamide] | –
11 | 1 to 100 | 1 to 100 | – | COCCN1CCC(c2cnn3c2[nH]c2cc(F)cc(C(N)=O)c23)CC1 [Example 15, 6-fluoro-3-(1-(2-methoxyethyl)piperidin-4-yl)-4H-benzo[4,5]imidazo[1,2-b]pyrazole-8-carboxamide] | –
12 | 1 to 100 | 1 to 100 | – | CCN1CCC(c2cnn3c2[nH]c2cc(F)cc(C(N)=O)c23)C1 (stereo not drawn) [Example 21, 3-(1-ethylpyrrolidin-3-yl)-6-fluoro-4H-benzo[4,5]imidazo[1,2-b]pyrazole-8-carboxamide] | –
13 | 1 to 100 | 101 to 1000 | – | CNCc1ccc(-c2cnn3c2[nH]c2cc(F)cc(C(N)=O)c23)cc1 [Example 43, 6-fluoro-3-(4-((methylamino)methyl)phenyl)-4H-benzo[4,5]imidazo[1,2-b]pyrazole-8-carboxamide] | –
14 | 1 to 100 | 101 to 1000 | – | NC(=O)c1cc(F)cc2[nH]c3c(C4CC(O)CN4)cnn3c12 (stereo not drawn) [Example 36, 6-fluoro-3-(4-hydroxypyrrolidin-2-yl)-4H-benzo[4,5]imidazo[1,2-b]pyrazole-8-carboxamide] | –
15 | – | 1 to 100 | – | NC(=O)c1cccc2cn(-c3ccc([C@@H]4CCCNC4)cc3)nc12 [MK-4827, niraparib, reference compound] | –

From patent publication US9856262B2, “Analogues of 4H-pyrazolo[1,5-a] benzimidazole compound as PARP inhibitors” (HUBEI BIO-PHARMACEUTICAL INDUSTRIAL TECHNOLOGICAL INSTITUTE …, priority 2014, dated 2018)
